The source of these data is ChEMBL document CHEMBL4665541, “Search for new therapeutic options for the uncommon pathogen Mycobacterium chimaera: an open drug discovery approach” (Lancet Microbe, 2021).

What all share (type): functional, organism-based
What all share (set-up): conc 20 uM

The subject of assay [1] is Mycobacterium intracellulare subsp. chimaera. The experiment in a line: (§1) Inhibition of mycobacterial growth using the resazurin microtitre cell viability assay (REMA), compounds at final concentration of 20 µM (2% v/v DMSO). Hits were classed as compounds that inhibited bacterial growth by 70% or more compared to drug-free controls. Particulars: NCTC13781.
Assay [2] relates to Mycobacterium tuberculosis. Described as §1. The conditions noted are these: H37Rv.
The subject of assay [3] is Mycobacteroides abscessus. The description is as §1. Particulars: ATCC19977.

MMV676524: the Survival was 97% in assay [1], 23.4% in assay [2] and 114% in assay [3].

As to MMV024937, the results for the Survival in assay [1], in assay [2] and in assay [3] were 111%, 88.4% and 103%, respectively.

As for MMV687803, the Survival is 10.8% in assay [1], 17.4% in assay [2] and 24.5% in assay [3].

Consider MMV016136, for which the Survival is 108% in assay [1], 107% in assay [2] and 118% in assay [3].

In the case of MMV689060, the figures for the Survival in assay [1], in assay [2] and in assay [3] were 109%, 104% and 119%, respectively.

For the substance MMV688180, the Survival in assay [1] was 101%; in assay [2], 94%; in assay [3], 116%.

As to MMV675994, the Survival is 108% in assay [1], 81.9% in assay [2] and 105% in assay [3].

Regarding MMV202458, the Survival in assay [1] was 98.1%; in assay [2], 132%; in assay [3], 99.9%.

In the case of MMV560185, the Survival in assay [1] was 89.9%; in assay [2], 80.8%; in assay [3] it was 116%.

Consider MMV637953, for which the Survival was 117% in assay [1], 102% in assay [2] and 145% in assay [3].

Consider MMV690103, for which the Survival in assay [1] was 110%; in assay [2] it was 105%; in assay [3] it was 117%.

In the case of MMV687706, the Survival in assay [1] is 92.7%; in assay [2] it was 99.8%; in assay [3] it was 108%.

For the substance MMV688994, the results for the Survival in assay [1], in assay [2] and in assay [3] were 80%, 13.7% and 101%, respectively.

Take MMV676528: the Survival is 102% in assay [1], 88.7% in assay [2] and 115% in assay [3].

As for MMV688889, the Survival in assay [1] was 89.4%; in assay [2], 58.9%; in assay [3] it was 105%.

For MMV688360, the values for the Survival in assay [1], in assay [2] and in assay [3] were 94.3%, 100% and 100%, respectively.

For the substance MMV676350, the results for the Survival in assay [1], in assay [2] and in assay [3] were 105%, 94.9% and 116%, respectively.

Turning to MMV007133, the values for the Survival in assay [1], in assay [2] and in assay [3] were 95.2%, 98.7% and 95%, respectively.

For the substance MMV026468, the Survival is 96.1% in assay [1], 95.9% in assay [2] and 105% in assay [3].

In the case of MMV689480, the Survival is 95.5% in assay [1], 98.5% in assay [2] and 112% in assay [3].

Consider MMV024035, for which the Survival in assay [1] is 98.3%; in assay [2], 85.9%; in assay [3], 117%.

Consider MMV690027, for which the Survival in assay [1] is 104%; in assay [2], 101%; in assay [3], 111%.

As to MMV676588, the values for the Survival in assay [1], in assay [2] and in assay [3] were 76.5%, 19.7% and 102%, respectively.

In the case of MMV001059, the values for the Survival in assay [1], in assay [2] and in assay [3] were 106%, 89.4% and 105%, respectively.

As to MMV688978, the Survival in assay [1] was 105%; in assay [2], 5.27%; in assay [3], 106%.

On to MMV676063, for which the Survival in assay [1] is 112%; in assay [2], 91%; in assay [3], 105%.

With MMV090930, the Survival is 84.6% in assay [1], 38.6% in assay [2] and 110% in assay [3].

MMV676162: the Survival in assay [1] was 112%; in assay [2] it was 93.3%; in assay [3] it was 117%.

As for MMV688474, the Survival in assay [1] is 100%; in assay [2], 94%; in assay [3], 106%.

Regarding MMV687188, the Survival in assay [1] was 73.5%; in assay [2] it was 43.4%; in assay [3], 110%.

Take MMV011903: the Survival in assay [1] was 108%; in assay [2], 108%; in assay [3], 114%.

MMV688793: the figures for the Survival in assay [1], in assay [2] and in assay [3] were 101%, 89.7% and 114%, respectively.

In the case of MMV676571, the Survival in assay [1] was 100%; in assay [2] it was 59.4%; in assay [3] it was 115%.

On to MMV688846, for which the Survival is 112% in assay [1], 69.2% in assay [2] and 20.9% in assay [3].

As to MMV687813, the Survival in assay [1] was 34.4%; in assay [2] it was 5.59%; in assay [3] it was 102%.

For MMV688990, the figures for the Survival in assay [1], in assay [2] and in assay [3] were 102%, 98.5% and 103%, respectively.

On to MMV007471, for which the Survival was 101% in assay [1], 89.1% in assay [2] and 119% in assay [3].

Turning to MMV019807, the Survival in assay [1] is 118%; in assay [2] it was 97.4%; in assay [3], 116%.

Take MMV688756: the Survival is 2.59% in assay [1], 13.4% in assay [2] and 50% in assay [3].

With MMV011691, the Survival in assay [1] is 103%; in assay [2], 86.2%; in assay [3], 104%.

Regarding MMV024397, the figures for the Survival in assay [1], in assay [2] and in assay [3] were 98.2%, 88.8% and 118%, respectively.

For MMV676536, the figures for the Survival in assay [1], in assay [2] and in assay [3] were 101%, 90.9% and 119%, respectively.

As to MMV688283, the Survival in assay [1] was 112%; in assay [2], 89.4%; in assay [3] it was 116%.

For the substance MMV054312, the Survival in assay [1] is 76.8%; in assay [2], 46.8%; in assay [3], 111%.

MMV188296: the Survival in assay [1] is 98%; in assay [2], 95%; in assay [3] it was 109%.

On to MMV022236, for which the Survival in assay [1] is 109%; in assay [2], 109%; in assay [3] it was 119%.

On to MMV407539, for which the Survival in assay [1] is 98.9%; in assay [2], 85.3%; in assay [3], 103%.

On to MMV676526, for which the Survival in assay [1] was 74.8%; in assay [2], 97.3%; in assay [3], 103%.

For MMV688798, the Survival in assay [1] was 95.2%; in assay [2] it was 102%; in assay [3] it was 103%.

Take MMV688773: the Survival in assay [1] was 94.7%; in assay [2] it was 82.8%; in assay [3], 122%.

Regarding MMV024195, the Survival in assay [1] is 94.1%; in assay [2], 74.2%; in assay [3] it was 103%.

MMV687146: the Survival in assay [1] is 4.5%; in assay [2] it was 77.5%; in assay [3] it was 17.2%.

Regarding MMV006901, the Survival is 120% in assay [1], 86.8% in assay [2] and 102% in assay [3].

Turning to MMV676881, the figures for the Survival in assay [1], in assay [2] and in assay [3] were 101%, 98.9% and 99.4%, respectively.

Regarding MMV019087, the Survival is 92.7% in assay [1], 74.9% in assay [2] and 111% in assay [3].

Take MMV688270: the values for the Survival in assay [1], in assay [2] and in assay [3] were 98.1%, 83% and 101%, respectively.

Take MMV011765: the Survival is 70.9% in assay [1], 89.2% in assay [2] and 108% in assay [3].

For the substance MMV668727, the Survival in assay [1] was 96.8%; in assay [2] it was 100%; in assay [3] it was 102%.

As for MMV020623, the Survival in assay [1] is 111%; in assay [2], 107%; in assay [3], 118%.

With MMV688555, the Survival in assay [1] is 92.5%; in assay [2], 46.8%; in assay [3] it was 108%.

Turning to MMV687812, the Survival in assay [1] is 41%; in assay [2], 26%; in assay [3], 26.9%.

On to MMV021057, for which the Survival in assay [1] is 110%; in assay [2], 96.6%; in assay [3], 126%.

Regarding MMV676589, the Survival is 89% in assay [1], 70.1% in assay [2] and 116% in assay [3].

As for MMV020388, the figures for the Survival in assay [1], in assay [2] and in assay [3] were 102%, 88.5% and 113%, respectively.

As for MMV675996, the Survival in assay [1] is 94.3%; in assay [2] it was 102%; in assay [3], 94.2%.

Regarding MMV676605, the Survival was 110% in assay [1], 99.5% in assay [2] and 122% in assay [3].

For the substance MMV687807, the Survival was 82.9% in assay [1], 4.61% in assay [2] and 103% in assay [3].

For MMV063404, the Survival in assay [1] is 90.4%; in assay [2], 33.5%; in assay [3], 108%.

On to MMV688352, for which the Survival in assay [1] is 103%; in assay [2], 89.6%; in assay [3] it was 107%.

MMV688980: the figures for the Survival in assay [1], in assay [2] and in assay [3] were 92%, 99.6% and 87.1%, respectively.

For MMV676477, the values for the Survival in assay [1], in assay [2] and in assay [3] were 73.1%, 4.54% and 111%, respectively.

For the substance MMV688327, the Survival in assay [1] was -1.9%; in assay [2] it was 7.39%; in assay [3] it was 18.6%.

With MMV676270, the results for the Survival in assay [1], in assay [2] and in assay [3] were 102%, 82.7% and 108%, respectively.

For the substance MMV023985, the values for the Survival in assay [1], in assay [2] and in assay [3] were 109%, 85.1% and 101%, respectively.

Consider MMV676406, for which the results for the Survival in assay [1], in assay [2] and in assay [3] were 105%, 67.8% and 111%, respectively.

As for MMV687703, the figures for the Survival in assay [1], in assay [2] and in assay [3] were 3.71%, 4.55% and 105%, respectively.
